Legend:
Rattus norvegicus [1] = assay: Ex vivo inhibition of blood platelet aggregation in rats at 50 mg/kg peroral dose 8 hr; assay type: functional; settings: route oral
Rattus norvegicus [2] = assay: Antihypertensive activity in conscious spontaneously hypertensive rat (SHR), percent change in heart rate (beats/min) after 2 hr at 10 mg/kg peroral dose; assay type: functional; settings: route oral
Rattus norvegicus [3] = assay: Antihypertensive activity in conscious spontaneously hypertensive rat (SHR), percent change in heart rate (beats/min) after 2 hr; assay type: functional
Mus musculus [4] = assay: Protection against mortality in pulmonary thromboembolism model in mice at 1 mg/kg; assay type: functional
Rattus norvegicus [5] = assay: Antihypertensive activity in conscious spontaneously hypertensive rat (SHR), percent change in Systolic blood pressure (SBP) at 0.3 mg/kg peroral dose after 12 hr; assay type: functional; settings: route oral
Homo sapiens [6] = species: Homo sapiens; assay: Inhibition of [14C]arachidonic acid induced TXB2 formation at 5 uM (Control TXB2 = 14.9+/-2.5)
Rattus norvegicus [7] = assay: Antihypertensive activity in conscious spontaneously hypertensive rat (SHR), percent change in Systolic blood pressure (SBP) at 1 mg/kg peroral dose after 2 hr; assay type: functional; settings: route oral
Thromboxane-A synthase = biological target: T1, Thromboxane-A synthase (Homo sapiens, UniProt P24557); assay: Compound was evaluated for the inhibition of human blood platelet thromboxane A2 synthase
T1 sequence (P24557 whole entry): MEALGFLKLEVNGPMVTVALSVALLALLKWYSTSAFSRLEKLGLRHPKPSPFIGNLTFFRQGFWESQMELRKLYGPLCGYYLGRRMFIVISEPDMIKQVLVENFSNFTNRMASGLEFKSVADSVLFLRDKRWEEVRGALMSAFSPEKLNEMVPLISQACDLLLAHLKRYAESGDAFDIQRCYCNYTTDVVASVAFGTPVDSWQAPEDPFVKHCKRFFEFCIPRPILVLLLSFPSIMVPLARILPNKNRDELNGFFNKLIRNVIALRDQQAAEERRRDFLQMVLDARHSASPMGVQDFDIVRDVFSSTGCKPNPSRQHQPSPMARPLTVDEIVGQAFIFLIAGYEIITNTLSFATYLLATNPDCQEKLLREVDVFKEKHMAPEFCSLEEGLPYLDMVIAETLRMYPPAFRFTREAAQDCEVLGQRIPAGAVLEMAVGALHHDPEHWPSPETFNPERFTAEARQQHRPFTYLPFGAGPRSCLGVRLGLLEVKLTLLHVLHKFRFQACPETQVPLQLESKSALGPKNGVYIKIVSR

Rattus norvegicus [8] = assay: Antihypertensive activity in conscious spontaneously hypertensive rat (SHR), percent change in Systolic blood pressure (SBP) at 10 mg/kg peroral dose; assay type: functional; settings: route oral
Rattus norvegicus [9] = assay: Antihypertensive activity in conscious spontaneously hypertensive rat (SHR), percent change in heart rate (beats/min) after 1 hr at 0.3 mg/kg peroral dose; assay type: functional; settings: route oral
Rattus norvegicus [10] = assay: Antihypertensive activity in conscious spontaneously hypertensive rat (SHR), percent change in Systolic blood pressure (SBP) at 0.3 mg/kg peroral dose after 1 hr; assay type: functional; settings: route oral
Homo sapiens [11] = species: Homo sapiens; assay: Inhibition of [14C]arachidonic acid induced platelet aggregation at 50 uM (Control 6-keto-PGF1-alpha = 1.45+/-0.6); assay type: functional
Rattus norvegicus [12] = assay: Antihypertensive activity in conscious spontaneously hypertensive rat (SHR), percent change in heart rate (beats/min) after 2 hr at 3 mg/kg peroral dose; assay type: functional; settings: route oral
Mus musculus [13] = assay: Time course of protection against mortality in a pulmonary thromboembolism model in mice after -7hr at 10 mg/kg; assay type: functional
Rattus norvegicus [14] = assay: Antihypertensive activity in conscious spontaneously hypertensive rat (SHR), percent change in Systolic blood pressure (SBP) at 10 mg/kg peroral dose after 1 hr; assay type: functional; settings: route oral
Rattus norvegicus [15] = assay: Antihypertensive activity in conscious spontaneously hypertensive rat (SHR), percent change in heart rate (beats/min) after 4 hr at 10 mg/kg peroral dose; assay type: functional; settings: route oral
Rattus norvegicus [16] = assay: Antihypertensive activity in conscious spontaneously hypertensive rat (SHR), percent change in heart rate (beats/min) after 12 hr at 0.3 mg/kg peroral dose; assay type: functional; settings: route oral
Rattus norvegicus [17] = assay: Antihypertensive activity in conscious spontaneously hypertensive rat (SHR), percent change in Systolic blood pressure (SBP) at 0.3 mg/kg peroral dose after 8 hr; assay type: functional; settings: route oral
Rattus norvegicus [18] = assay: Antihypertensive activity in conscious spontaneously hypertensive rat (SHR), percent change in heart rate (beats/min) after 8 hr at 0.3 mg/kg peroral dose; assay type: functional; settings: route oral
Rattus norvegicus [19] = assay: Antihypertensive activity in conscious spontaneously hypertensive rat (SHR), percent change in heart rate (beats/min) after 1 hr at 1 mg/kg peroral dose; assay type: functional; settings: route oral
Mus musculus [20] = assay: Protection against mortality in pulmonary thromboembolism model in mice at 12 mg/kg; assay type: functional
Mus musculus [21] = assay: Protection against mortality in pulmonary thromboembolism model in mice at 6 mg/kg; assay type: functional
Rattus norvegicus [22] = assay: Antihypertensive activity in conscious spontaneously hypertensive rat (SHR), percent change in Systolic blood pressure (SBP) at 1 mg/kg peroral dose after 8 hr; assay type: functional; settings: route oral
Rattus norvegicus [23] = assay: Antihypertensive activity in conscious spontaneously hypertensive rat (SHR), percent change in heart rate (beats/min) after 2 hr at 0.3 mg/kg peroral dose; assay type: functional; settings: route oral
Mus musculus [24] = assay: Protection against mortality in pulmonary thromboembolism model in mice at 30 mg/kg; assay type: functional
Rattus norvegicus [25] = assay: Antihypertensive activity in conscious spontaneously hypertensive rat (SHR), percent change in heart rate (beats/min) after 8 hr at 10 mg/kg peroral dose; assay type: functional; settings: route oral
Rattus norvegicus [26] = assay: Antihypertensive activity in conscious spontaneously hypertensive rat (SHR), percent change in heart rate (beats/min) after 1 hr at 3 mg/kg peroral dose; assay type: functional; settings: route oral
Rattus norvegicus [27] = assay: Ex vivo inhibition of blood platelet aggregation in rats at 50 mg/kg peroral dose after 5 hr; assay type: functional; settings: route oral
Rattus norvegicus [28] = assay: Antihypertensive activity in conscious spontaneously hypertensive rat (SHR), percent change in Systolic blood pressure (SBP) at 3 mg/kg peroral dose after 2 hr; assay type: functional; settings: route oral
Rattus norvegicus [29] = assay: Antihypertensive activity in conscious spontaneously hypertensive rat (SHR), percent change in heart rate (beats/min) after 12 hr at 1 mg/kg peroral dose; assay type: functional; settings: route oral
Rattus norvegicus [30] = assay: Antihypertensive activity in conscious spontaneously hypertensive rat (SHR), percent change in Systolic blood pressure (SBP) at 1 mg/kg peroral dose after 1 hr; assay type: functional; settings: route oral
Rattus norvegicus [31] = assay: Ex vivo inhibition of blood platelet aggregation in rats at 50 mg/kg peroral dose after 3 hr; assay type: functional; settings: route oral
Rattus norvegicus [32] = assay: Antihypertensive activity in conscious spontaneously hypertensive rat (SHR), percent change in heart rate (beats/min) after 4 hr at 3 mg/kg peroral dose; assay type: functional; settings: route oral
Rattus norvegicus [33] = assay: Antihypertensive activity in conscious spontaneously hypertensive rat (SHR), percent change in Systolic blood pressure (SBP) at 3 mg/kg peroral dose after 8 hr; assay type: functional; settings: route oral
[34] = biological target: T2, Thromboxane-A synthase (Homo sapiens) (UniProt P24557); assay: Effect of TXA2 synthase inhibitor (compound) on serum TXB2 level in rats at 50 mg/kg po, after 2 hr; assay type: functional, organism-based; design: dose 50 mg/kg; settings: Rattus norvegicus, target entry is the homologue from another species
T2 sequence (whole entry): T1 sequence (P24557 whole entry)

Mus musculus [35] = assay: Protection against mortality in pulmonary thromboembolism model in mice at 3 mg/kg; assay type: functional
Homo sapiens [36] = species: Homo sapiens; assay: Inhibition of ADP-induced aggregation of human PRP in the absence of pig aortal microsomes (PAM); assay type: functional

## O=C1CCc2cc(/C=C/n3ccnc3)ccc2N1
Rattus norvegicus [1]
  inhibition in vivo at 50 mg/kg: 96.5%
Rattus norvegicus [2]
  Change in heart rate: 19%
Rattus norvegicus [3]
  Change in heart rate: 11%
Mus musculus [4]
  survival at 1 mg/kg: 10%
Rattus norvegicus [5]
  Change in systolic BP: 1%
Homo sapiens [6]
  TXB2 level at 5 µM: 12.3%
Rattus norvegicus [7]
  Change in systolic BP: -8%
Thromboxane-A synthase
  IC50: 1.2 µM
Rattus norvegicus [8]
  Change in systolic BP: -35%
Rattus norvegicus [9]
  Change in heart rate: 3%
Rattus norvegicus [10]
  Change in systolic BP: -5%
Homo sapiens [11]
  6-keto-PGF1α level at 50 µM: 11.5%
Rattus norvegicus [12]
  Change in heart rate: 10%
Mus musculus [13]
  survival at 10 mg/kg: 0%
Rattus norvegicus [14]
  Change in systolic BP: -56%
Rattus norvegicus [15]
  Change in heart rate: 25%
Rattus norvegicus [16]
  Change in heart rate: -8%
Rattus norvegicus [17]
  Change in systolic BP: -5%
Rattus norvegicus [18]
  Change in heart rate: -8%
Rattus norvegicus [19]
  Change in heart rate: 17%
Mus musculus [20]
  survival at 12 mg/kg: 70%
Mus musculus [21]
  survival at 6 mg/kg: 50%
Rattus norvegicus [22]
  Change in systolic BP: -9%
Rattus norvegicus [23]
  Change in heart rate: -13%
Mus musculus [24]
  survival at 30 mg/kg: 20%
Rattus norvegicus [25]
  Change in heart rate: 16%
Rattus norvegicus [26]
  Change in heart rate: 28%
Rattus norvegicus [27]
  inhibition in vivo at 50 mg/kg: 95.9%
Rattus norvegicus [28]
  Change in systolic BP: -40%
Rattus norvegicus [29]
  Change in heart rate: 1%
Rattus norvegicus [30]
  Change in systolic BP: -19%
Rattus norvegicus [31]
  inhibition in vivo at 50 mg/kg: 94.7%
Rattus norvegicus [32]
  Change in heart rate: 20%
Rattus norvegicus [33]
  Change in systolic BP: -18%
[34]
  inhibition: 97%
Mus musculus [35]
  survival at 3 mg/kg: 20%
Homo sapiens [36]
  IC50: 5.6 µM

Source: ChEMBL document CHEMBL1126161, “3,4-Dihydroquinolin-2(1H)-ones as combined inhibitors of thromboxane A2 synthase and cAMP phosphodiesterase” (J Med Chem, 1992)
